# Source: patent US20070111251A1, “Chemical address tags” (priority 2003, published 2007)
# What was measured:
# mitochondria = assay: QSLR factorial logistic regression of mitochondrial localization (affinity coefficients, cross-validated prediction); set-up: species or system human; settings: for αi^mito: influence of A group on mitochondrial localization, greater = stronger; for estimated A group affinity coefficient ai / estimated B group affinity coefficient bj: mitochondrial affinity; for estimated A group affinity coefficient ai: ±5 for groups always or never mitochondrial; for βj^mito: influence of B group on mitochondrial localization
# Description: The first column and first row contain the A group and B group labels. The second column and second row contain the estimated A group and B group affinity coefficients (ai and bj respectively). The interior of the table contains the value sij=ai+bj for each compound (where positive values of sij indicate predicted localization to mitochondria, and negative values of sij indicate predicted localization to a non-mitochondrial compartment). The subscript m indicates experimentally determined mitochondrial localization. The subscript o indicates experimentally determined non-mitochondrial localization. The darkened boxes indicate correctly predicted mitochondrial localizations under cross-validation.
# Based on this matrix, factorial logistic regression (See, A. Agresti, Categorical Data Analysis, Wiley [2002]) was used to calculate mitochondrial affinity coefficients (ai and bj) for each A and B moiety. (Table 1). Since it is not necessary to observe all possible pairings between A and B building blocks to estimate the affinity coefficients, the QSLR approach can predict localization of unmeasured styryl molecules based on a minimal set of experimentally-determined localizations (see Methods). The methods of the present invention allow assessment of predictivity using the cross-validation technique by holding out one compound and fitting the affinity coefficients using the remaining compounds, predictivity can be assessed by comparing the actual localization of the held-out compound to its predicted localization. Repeating this for every measured compound in the library yields an error rate for the procedure.
# Briefly, this technique assigns quantitative scores to each A group (αi^mito) and to each B group (βj^mito), in such a way that αi^mito+βj^mito is positive for compounds with mitochondrial localization, and is negative for compounds lacking mitochondrial localization. […] In additional embodiments, same analysis can be applied to organelles other than mitochondria, provided there are a sufficient number of localizations to specific non-mitochondrial organelles in the combinatorial library of interest for reliable statistical calculations.
# In certain embodiments, the predictive performance of the above method was assessed using a cross-validation approach by calculating the proportion of all compounds that are correctly predicted. For cross-validation, each styryl product was set aside in sequence, and the factorial logistic model was fit to the remaining data. Then the resulting A and B scores for the held-out compound were summed. If the sum was positive, the held-out compound was predicted to be mitochondrial, while if the sum was negative, the held-out compound was predicted to be non-mitochondrial. […] The baseline performance of the method scored 104 correct out of 145, or 72%. This number is highly statistically significant compared to random guessing (p-value ˜10^−7). Thus, across the entire library, A and B moieties appear to contribute to localization in an independent, additive fashion.
# In some embodiments, subcellular localization data were converted to binary (0/1) values by assigning a value Gij=1 if compound i,j localized to mitochondria (even if it localized to other […] as well), and assigning Gij=0 if compound i,j localized exclusively to any non-mitochondrial cellular structure. Compounds with no localization were omitted from this part of the analysis. The αi and βj coefficients for A or B groups that are always observed to localize to mitochondria, or that never localize to mitochondria, were set to +/−5, respectively. The binary localization data were analyzed using factorial logistic regression. […]
# [1] = Additive decomposition of peak excitation and emission wavelengths (model coefficients of A and B groups); settings: for αi^em: influence of A group on peak emission wavelength; for αi^em / αi^ex: A group 1 as baseline; for αi^ex: influence of A group on peak excitation wavelength; for βj^em: influence of B group on peak emission wavelength; for βj^em / βj^ex: B group 1 as baseline; for βj^ex: influence of B group on peak excitation wavelength
# Description: The chemical structure of the styryl library is illustrated in FIG. 3. […] Initial analysis focused on measurements of peak emission and excitation wavelength obtained for all styryl products showing a single, localized peak (there were 256 such compounds for emission wavelength, and 193 compounds for excitation wavelength). […] The wavelength for the styryl compound formed by joining A group i with B group j is denoted as λij (or more specifically, λij^ex for excitation wavelength and λij^em for emission wavelength). The additive model λij=ai+βj+εij was fit to the data using least squares yielding parameters αi^ex, αi^em, βj^ex, and βj^em that quantify the influence of each A and B group on the spectrum of the styryl product. […] (FIGS. 8A-8B). […] The predictions were made ignoring interactions between the two functional moieties in the styryl compound. The predicted values were obtained without bias, by holding out the data point to be predicted when training the model.
# In preferred embodiments, using the cross-validation approach disclosed herein, each compound was held out in sequence, the model was trained using the remaining compounds, then the wavelength value for the held-out compound was predicted based on the resulting fitted model. This process produced correlations between measured and predicted values of ρ^em=0.78 (emission) and ρ^ex=0.69 (excitation).
# Based on this analysis, the contribution of the A and B functional groups to the fluorescence of the styryl product is quantified using the fitted coefficients αi^ex, βj^ex, […], and βj^em. Since these coefficients are on a scale without origin, in some embodiments, the invention uses the first A group and B group as a baseline, so […], β1^ex=0, and so on. Table 3 contains the model coefficients of all A and B groups for peak excitation and emission wavelength.
# Greater values of αi^ex, αi^em, βj^ex, and βj^em indicate greater peak wavelength. Greater values of αi^mito and […] indicate stronger mitochondrial localization. A groups 40 and 41 were not screened for localization. A groups 2, 29, and 33 only formed fluorescent products with a single B group, so were not included in the spectral analysis.
# In some embodiments, the wavelength values for peak excitation and emission were fit to the additive model λij=αi+βj+εij, where εij denotes error that is made as small as possible in the fitting process. Using least squares to minimize the function [formula] over all compounds having experimental data yields coefficient estimates αi for each A group and βj for each B group. One set of coefficient estimates is obtained for the excitation values and another set is obtained for the emission values. To predict the wavelength of a new compound formed from A and B groups i* and j* the sum αi*+βj* is used.
# In some embodiments, for both the spectral and localization analysis, cross-validation was used to obtain unbiased estimates of the prediction performance. Each compound was held out in sequence, and the coefficients αi and βj were fit to the remaining compounds. These values were then used to form a prediction for the held out compound, then the predicted and experimental values were compared to obtain a measure of the accuracy of prediction. Since the wavelength values are on a continuous scale, the predicted values were compared to the experimental values using Pearson correlation coefficients. The localization values are dichotomous, so the proportion of matching predictions was used to compare predicted and experimental localization values.
SMILES,αi^mito (mitochondria),estimated A group affinity coefficient ai (mitochondria),αi^em [1] [nm],αi^ex [1] [nm],influence of group on peak wavelength [1],βj^mito (mitochondria),estimated B group affinity coefficient bj (mitochondria),βj^em [1] [nm],βj^ex [1] [nm],influence of A group on mitochondrial localization (mitochondria)
O=Cc1ccc(Br)cc1 [A group 5],5.0,5.0,26.7,−32.3,–,–,–,–,–,–
COc1ccc2ccccc2c1C=O [A group 23],−5.0,−5.0,−10.3,6.1,–,–,–,–,–,–
CC(=O)Nc1ccc(C=O)cc1 [A group 18],0.8,0.8,51.2,−24.3,strongly contribute towards the red end of the spectrum,–,–,–,–,–
CN(C)c1ccc(C=CC=O)cc1 [A group 37],−0.9,−0.9,122.1,82.9,strongly contribute towards the red end of the spectrum,–,–,–,–,–
O=Cc1ccc2c(c1)OCO2 [A group 39],0.0,0.0,−25.3,−28.3,–,–,–,–,–,–
Cc1cc[n+](C)cc1.[I-] [B group 1],–,–,–,–,–,1.9,1.9,0.0,0.0,–
Cc1cnc2c(ccc3c(C)c(C)c[n+](C)c32)c1C.[I-] [B group 14],–,–,–,–,strongly contribute towards the red end of the spectrum,0.0,0.1,57.9,100.6,–
O=Cc1ccc(F)cc1 [A group 30],5.0,5.0,50.1,7.4,redder,–,–,–,–,mitochondrial attraction
O=Cc1c[nH]c2ccccc12 [A group 24],−1.7,−1.7,−24.2,−7.2,–,–,–,–,–,–
O=Cc1ccc2ccccc2c1 [A group 33],5.0,5.0,−26.5,–,bluer,–,–,–,–,mitochondrial attraction
COc1cc(C=O)cc(OC)c1OC [A group 13],5.0,5.0,0.2,−44.2,–,–,–,–,–,–
O=Cc1ccc(OCc2ccccc2)c(OCc2ccccc2)c1 [A group 12],−3.3,−3.3,−22.7,−36.7,–,–,–,–,–,–
CN(C)c1ccc(C=O)c2ccccc12 [A group 27],−0.3,−0.3,72.0,11.1,strongly contribute towards the red end of the spectrum,–,–,–,–,–
O=Cc1ccc(Cl)cc1 [A group 6],5.0,5.0,−9.5,4.9,–,–,–,–,–,–
O=Cc1cccc(Br)c1 [A group 4],−5.0,−5.0,23.5,−34.0,–,–,–,–,–,–
O=Cc1ccccc1F [A group 29],5.0,5.0,−8.0,–,–,–,–,–,–,–
Cc1ccnc(-c2cc(C)cc[n+]2C)c1.[I-] [B group 10],–,–,–,–,–,0.8,0.8,19.8,1.6,–
COc1cc(OC)c(OC)cc1C=O [A group 38],−1.3,−1.3,22.2,−15.6,–,–,–,–,–,–
CCc1ccc(C)[n+](C)c1.[I-] [B group 5],–,–,–,–,–,2.2,2.3,−7.6,−1.6,–
O=Cc1ccc(-c2ccccc2)cc1 [A group 17],−5.0,−5.0,−46.6,−14.3,bluer,–,–,–,–,mitochondrial repulsion
O=Cc1ccccc1[N+](=O)[O-] [A group 20],−2.7,−2.7,44.5,6.5,the far red shift is not observed,–,–,–,–,–
Cc1ccc[n+](C)c1C.[I-] [B group 4],–,–,–,–,–,3.0,3.0,−23.2,−32.3,–
Cc1cc[n+](C23CC4CC(CC(C4)C2)C3)cc1.[Br-] [B group 2],–,–,–,–,–,2.0,2.0,4.3,4.9,–
Cc1cccc(C)[n+]1C.[I-] [B group 12],–,–,–,–,–,2.7,2.7,−1.7,−10.2,–
Cc1cc[n+](C)c2ccccc12.[I-] [B group 7],–,–,–,–,strongly contribute towards the red end of the spectrum,3.5,3.5,63.7,29.6,–
Cc1cc(C)[n+](C)c(C)c1.[I-] [B group 13],–,–,–,–,–,2.5,2.5,−1.8,−1.1,–
Cc1cc[n+](C)c(Br)c1.[I-] [B group 6],–,–,–,–,–,−5.0,−5.0,3.5,27.7,–
COc1ccc(C=O)c2ccccc12 [A group 14],−1.2,−1.2,0.3,−1.6,–,–,–,–,–,–
